Measured values from US20250235456A1, “METHODS OF USE FOR AZA-QUINAZOLINE COMPOUNDS” (Iambic Therapeutics, Inc., priority 2024, published 2025).

How the values were obtained:
CDK1/Cyclin B1 = CDK1/Cyclin B1 (Homo sapiens (Human), UniProt P06493); experiment: CDK1/Cyclin B1 ADP-Glo Kinase Assay; assay type: biochemical
Experimental: CDK1/Cyclin B1 ADP-Glo Kinase Assay
(§1) The purpose of CDK1/Cyclin Bi assay is to evaluate the inhibition (% inhibition and IC50 values) of small molecule inhibitors by using a Luminescent based ADP-Glo assay. CDK1/Cyclin B1 catalyzes the production of ADP from ATP. ADP-Glo assay monitors ADP producing biochemical reactions. ADP-Glo is performed in 2 steps upon completion of kinase reaction: a combined termination of kinase reaction and depletion of remaining ATP in the first step, and conversion of generated ADP to ATP and the newly produced ATP to light output using luciferase/luciferin reaction in the second step. The luminescent signal generated is proportional to the ADP concentration produced and is correlated with the kinase activity. CDK1/Cyclin B1 was purchased from Carna (Cat 04-102). […] The assay was initiated with the addition of ATP-containing substrate solution, following a 30-minute pre-incubation of enzyme and inhibitor at room temperature in the reaction mixture. The reaction was stopped after 90 minutes at room temperature by the addition of 10 μL of ADP-GLO Reagent. After a 90 minute incubation, 20 μL of Kinase Detection Reagent was added. Samples were incubated for 40 minutes, after which plate well luminescence was measured on a Envision microplate reader. The IC50 determinations were made from a plot of the fractional velocity as a function of inhibitor concentration fit to the 4 parameters IC50 equation.

CDK6/Cyclin D3 = CDK6/Cyclin D3 (Homo sapiens (Human), UniProt Q00534); experiment: CDK6/Cyclin D3 ADP-Glo Kinase Assay; assay type: biochemical; settings: read-out: CDK6/CyclinD3 IC50
Experimental: CDK6/Cyclin D3 ADP-Glo Kinase Assay
as §1, with “of the CDK6/Cyclin D3” for “of CDK1/Cyclin Bi”, “values) in the presence” for “values)”, “assay. CDK6/Cyclin D3” for “assay. CDK1/Cyclin B1”, “activity. CDK6/Cychin D3” for “activity. CDK1/Cyclin B1”, “from Carna.” for “from Carna (Cat 04-102).”, “a 90-minute” for “a 90 minute”

Sequence of CDK6/Cyclin D3 (Q00534 whole entry): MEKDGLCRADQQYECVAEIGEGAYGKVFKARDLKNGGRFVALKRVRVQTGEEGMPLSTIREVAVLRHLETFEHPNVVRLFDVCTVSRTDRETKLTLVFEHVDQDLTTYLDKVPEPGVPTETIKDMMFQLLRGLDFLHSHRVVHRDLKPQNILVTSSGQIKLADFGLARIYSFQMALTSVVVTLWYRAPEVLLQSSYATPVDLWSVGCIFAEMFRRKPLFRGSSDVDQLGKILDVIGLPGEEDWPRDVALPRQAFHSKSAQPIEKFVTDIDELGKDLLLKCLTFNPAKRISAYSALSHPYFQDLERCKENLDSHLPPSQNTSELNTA
Sequence of CDK6/Cyclin D3 (P30281 whole entry partner): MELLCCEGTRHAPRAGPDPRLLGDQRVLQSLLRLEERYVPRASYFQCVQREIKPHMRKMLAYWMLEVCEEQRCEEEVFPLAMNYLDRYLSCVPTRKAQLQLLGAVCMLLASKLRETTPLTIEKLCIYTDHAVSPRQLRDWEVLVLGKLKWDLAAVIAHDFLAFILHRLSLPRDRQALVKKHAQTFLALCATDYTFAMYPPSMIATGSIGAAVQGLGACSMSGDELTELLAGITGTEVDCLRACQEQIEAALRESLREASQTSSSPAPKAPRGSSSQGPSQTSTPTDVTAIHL
Sequence of CDK1/Cyclin B1 (P06493 whole entry): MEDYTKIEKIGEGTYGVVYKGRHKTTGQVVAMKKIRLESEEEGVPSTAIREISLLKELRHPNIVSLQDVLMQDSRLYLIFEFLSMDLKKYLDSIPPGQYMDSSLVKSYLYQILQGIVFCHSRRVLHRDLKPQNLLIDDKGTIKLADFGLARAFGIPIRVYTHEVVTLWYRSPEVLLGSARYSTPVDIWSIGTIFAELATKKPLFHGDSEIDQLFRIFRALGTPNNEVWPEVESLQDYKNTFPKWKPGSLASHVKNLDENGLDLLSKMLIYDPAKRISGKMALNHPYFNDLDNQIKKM
Sequence of CDK1/Cyclin B1 (P14635 whole entry partner): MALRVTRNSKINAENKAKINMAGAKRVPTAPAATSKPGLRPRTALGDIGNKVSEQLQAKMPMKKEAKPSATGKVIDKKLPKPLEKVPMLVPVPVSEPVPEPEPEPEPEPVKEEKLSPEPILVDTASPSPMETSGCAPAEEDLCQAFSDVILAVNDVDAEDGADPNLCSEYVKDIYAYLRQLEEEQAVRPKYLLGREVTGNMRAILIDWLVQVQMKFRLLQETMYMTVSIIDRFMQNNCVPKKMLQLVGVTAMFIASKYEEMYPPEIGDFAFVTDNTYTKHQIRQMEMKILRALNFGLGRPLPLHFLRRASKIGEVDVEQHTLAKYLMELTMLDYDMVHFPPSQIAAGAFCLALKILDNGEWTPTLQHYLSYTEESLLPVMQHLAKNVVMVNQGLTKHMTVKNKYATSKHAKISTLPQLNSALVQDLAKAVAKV

Row | IC50 (CDK1/Cyclin B1) | IC50 (CDK6/Cyclin D3) | SMILES
1 | > 2000 nM | – | Cc1cc2cnc(Nc3cnn(C4CN(CC#N)C4)c3)nc2c(N2CC3(CN(C)C3)C2)n1 [Compound 31, 2-(3-(4-((6-methyl-8-(6-methyl-2,6-diazaspiro[3.3]heptan-2-yl)pyrido[3,4-d]pyrimidin-2-yl)amino)-1H-pyrazol-1-yl)azetidin-1-yl)acetonitrile]
2 | < 200 nM | – | Cc1cc2cnc(NC3CCN(S(C)(=O)=O)CC3)nc2c(C2CC3(CNCC3(F)F)C2)n1 (stereo not shown) [Compound 99, 8-(8,8-difluoro-6-azaspiro[3.4]octan-2-yl)-6-methyl-N-(1-(methylsulfonyl)piperidin-4-yl)pyrido[3,4-d]pyrimidin-2-amine]
3 | > 2000 nM | > 2000 nM | Cc1cc2cnc(Nc3cnn(CC4(N(C)C)CC4)c3)nc2c(N2CCC(C#N)(C3CC3)C2)n1 (stereo not shown) [Compound 38, 3-cyclopropyl-1-(2-((1-((1-(dimethylamino)cyclopropyl)methyl)-1H-pyrazol-4-yl)amino)-6-methylpyrido[3,4-d]pyrimidin-8-yl)pyrrolidine-3-carbonitrile]
4 | < 200 nM | – | Cc1cc2cnc(NC3CCN(S(C)(=O)=O)CC3)nc2c(N2CCC3(C2)CC3(F)F)n1 (stereo not shown) [Compound 41, 8-(1,1-difluoro-5-azaspiro[2.4]heptan-5-yl)-6-methyl-N-(1-(methylsulfonyl)piperidin-4-yl)pyrido[3,4-d]pyrimidin-2-amine]
5 | > 2000 nM | > 2000 nM | CN1C[C@@H]2[C@H](C1)[C@H]2Nc1ncc2ccnc(N3CCC4(CCN(S(C)(=O)=O)C4)C3)c2n1 (stereo partly drawn) [Compound 15, N-((1R,5S,6s)-3-methyl-3-azabicyclo[3.1.0]hexan-6-yl)-8-(7-(methylsulfonyl)-2,7-diazaspiro[4.4]nonan-2-yl) pyrido[3,4-d]pyrimidin-2-amine]
6 | > 2000 nM | > 2000 nM | CS(=O)(=O)N1CCC(Nc2ncc3ccnc(N4CC5(CCCC5)c5c(F)cccc54)c3n2)CC1 [Compound 19, 8-(4′-fluorospiro [cyclopentane-1,3′-indolin]-1′-yl)-N-(1-(methylsulfonyl)piperidin-4-yl)pyrido[3,4-d]pyrimidin-2-amine]
7 | < 200 nM | – | CS(=O)(=O)N1CCC(Nc2ncc3cc(C4CC4)nc(C4CC5(CNCCO5)C4)c3n2)CC1 (stereo not shown) [Compound 70, 6-cyclopropyl-N-(1-(methylsulfonyl)piperidin-4-yl)-8-(5-oxa-8-azaspiro[3.5]nonan-2-yl)pyrido[3,4-d]pyrimidin-2-amine]
8 | < 200 nM | – | [2H]C([2H])([2H])N1CC2(CN(c3nc(C)cc4cnc(NC5CCN(S(C)(=O)=O)CC5)nc34)CC2(F)F)C1 [Example 12, 8-(8,8-difluoro-2-(methyl-d3)-2,6-diazaspiro[3.4]octan-6-yl)-6-methyl-N-(1-(methylsulfonyl)piperidin-4-yl)pyrido[3,4-d]pyrimidin-2-amine]
9 | < 200 nM | – | [2H]C([2H])([2H])N1CC2(CN(c3nc(C)cc4cnc(NC5CCN(S(=O)(=O)C6CC6)CC5)nc34)CC2(F)F)C1 [Compound 13, N-(1-(cyclopropylsulfonyl)piperidin-4-yl)-8-(8,8-difluoro-2-(methyl-d3)-2,6-diazaspiro[3.4]octan-6-yl)-6-methylpyrido[3,4-d]pyrimidin-2-amine]

Row | SMILES | IC50 (CDK1/Cyclin B1) | IC50 (CDK6/Cyclin D3)
10 | [2H]C([2H])([2H])N1CC2(CN(c3nc(C)cc4cnc(NC5CCN(S(=O)(=O)c6cnn(C)c6)CC5)nc34)CC2(F)F)C1 [Example 11, 8-(8,8-difluoro-2-(methyl-d3)-2,6-diazaspiro[3.4]octan-6-yl)-6-methyl-N-(1-((1-methyl-1H-pyrazol-4-yl)sulfonyl)piperidin-4-yl)pyrido[3,4-d]pyrimidin-2-amine] | < 200 nM | –
